Assays:
[1] = system: passively sensitized rat mast cells (RBL-2H3); experiment: antigen-induced release of hexosaminidase from RBL-2H3 cells; format: cell-based; conditions: Rattus norvegicus, RBL-2H3, 25 μM compound; antigen-induced hexosaminidase release; read-out: Percentage Inhibition (mean) RBL-2H3 Cells
In short: (§1)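 RBL-2H3 and MC/9 cells passively sensitized with anti-DNP IgE, incubated 1 h at 37 °C with compound at 25 μM, then challenged 15 min with 0.1 mg/ml DNP-HSA. Released hexosaminidase measured colorimetrically with p-NAG over 1 h at 410 nm; expressed as % of background-corrected antigen response with DMSO alone.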

guinea pig ileum = experiment: antigen-induced contraction of ileum from sensitized guinea pigs; conditions: Cavia porcellus, read-out: Percentage Inhibition, 30 μM compound, n = 3-4
In short: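 Ileum from ovalbumin-sensitized guinea pigs suspended in Tyrode's buffer at 37 °C under 2 g tension, isometric contraction recorded. Tissues preincubated 20 min with 30 μM compound (0.15% DMSO control), then challenged with 100 μg/ml ovalbumin; contraction expressed as percent of 3 μM histamine response.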

NF-κB = NF-κB gel shift binding assay in TPA-stimulated RBL-2H3 cells; format: cell-based; conditions: Rattus norvegicus, compound 1 μM, 2 hours preincubation, read-out: Percent Inhibition of Response to TPA (0.1 μM)
mouse mast cells (MC/9) = experiment: antigen-induced release of hexosaminidase from MC/9 cells; format: cell-based; conditions: Mus musculus, MC9, 25 μM compound, read-out: Percentage Inhibition (mean) MC/9 cells
In short: as §1

sensitized guinea pigs = experiment: allergen-induced changes in lung resistance and compliance in vivo; set-up: species or system guinea pig
Protocol: Female Cam Hartley guinea pigs (350-400 g) are sensitized to ovalbumin by exposure of the guinea pigs to a nebulized solution of 1% ovalbumin in saline for 15 minutes. After 10-12 days, the animals are found to be acutely sensitized to the allergen (ovalbumin). Animals are treated by oral gavage, under light halothane anesthesia, with 300 μl polyethyleneglycol-200 (PEG) or 5 mg/Kg of test compound in 300 μl of PEG. Animals are treated once daily for 4 days with the final dose administered 2 hours prior to allergen challenge. Alternatively, compounds were delivered by inhalation, using a Hudson nebulizer driven by 6 psi oxygen, providing a single dose of 50 μg/Kg 20 min prior to challenge.
An animal is anaesthetized using ketamine ([…]; i.p.) and xylazine (10 mg/Kg; i.p.) and 1% halothane during the surgical procedure. A tracheostomy is performed and a water-filled esophageal cannula is inserted prior to positioning the animal in a body plethysmograph. The tracheal cannula is attached to a fixed tracheal cannula in the plethysmograph. Cardiac function is monitored using electrocardiography. The animal is paralyzed using pancuronium bromide (0.8 mg/Kg; i.m.) and ventilated with 3 ml tidal breaths using a Harvard small animal ventilator, at a frequency of 60 breaths per minute. Pulmonary resistance and dynamic lung compliance data are obtained from volume, flow and transpulmonary pressure signals using multipoint analysis.
Pulmonary function is continually monitored throughout the experiment and measurements of lung resistance and lung compliance are made at various time-points (e.g., 0, 1, 2, 3, 4, 5, 10, 20 and 30 min) following antigen challenge. Data is collected on a computer-linked physiological measurement system using DIREC Physiological recording software and analyzed using ANADAT software designed for lung mechanics measurements. This software was obtained from RHT-InfoDat Inc., Montreal, Quebec, Canada.
Once baseline resistance and compliance measurements are obtained, the animal is challenged with 6 breaths of saline. After 10 minutes, during which time no alterations in lung function should occur, the animal is challenged with 6 breaths of 2 or 3% ovalbumin in saline (as the antigen stimulus). Saline and antigen are delivered in each breath using a Hudson nebulizer.

[2] = 5 mg/kg/day for 4 days p.o., 1 min after challenge
[3] = 5 mg/kg/day for 4 days p.o., 3 min after challenge
[4] = 5 mg/kg/day for 4 days p.o., 4 min after challenge
[5] = 5 mg/kg/day for 4 days p.o., 5 min after challenge
[6] = 5 mg/kg/day for 4 days p.o., 10 min after challenge
[7] = 5 mg/kg/day for 4 days p.o., 20 min after challenge
[8] = 5 mg/kg/day for 4 days p.o., 30 min after challenge
[9] = 5 mg/kg/day for 4 days p.o., Baseline
[10] = 5 mg/kg/day for 4 days p.o., OA/10 s

C/C=C1/CCC2C3C(CC[C@]12C)[C@@]1(C)CC[C@@H](O)CC1[C@@H](O)[C@@H]3O (stereo partly drawn) [Compound 330, 3α,6α,7β-trihydroxy-17(20)-pregnene]
inhibition at 25 µM [1]: 59% | inhibition at 30 µM (guinea pig ileum): 70% | inhibition at 1 µM (NF-κB): 66% | inhibition at 25 µM (mouse mast cells (MC/9)): 49% | Lung Resistance (sensitized guinea pigs; 50 μg/kg inhalation, 3 min after challenge): 0.420 ± 0.051 cm H2O/ml/sec | Lung Compliance (sensitized guinea pigs; 50 μg/kg inhalation, 4 min after challenge): 0.145 ± 0.046 ml/cm H2O | Lung Compliance (sensitized guinea pigs; [2]): 0.182 ± 0.093 ml/cm H2O | Lung Resistance (sensitized guinea pigs; [2]): 0.560 ± 0.101 cm H2O/ml/sec | Lung Resistance (sensitized guinea pigs; 5 mg/kg/day for 4 days p.o., 2 min after challenge): 0.845 ± 0.201 cm H2O/ml/sec | Lung Compliance (sensitized guinea pigs; [3]): 0.133 ± 0.095 ml/cm H2O | Lung Resistance (sensitized guinea pigs; [3]): 0.887 ± 0.160 cm H2O/ml/sec | Lung Compliance (sensitized guinea pigs; [4]): 0.124 ± 0.088 ml/cm H2O | Lung Resistance (sensitized guinea pigs; [4]): 0.778 ± 0.119 cm H2O/ml/sec | Lung Compliance (sensitized guinea pigs; [5]): 0.125 ± 0.087 ml/cm H2O | Lung Resistance (sensitized guinea pigs; [5]): 0.791 ± 0.139 cm H2O/ml/sec | Lung Compliance (sensitized guinea pigs; [6]): 0.150 ± 0.082 ml/cm H2O | Lung Resistance (sensitized guinea pigs; [6]): 0.661 ± 0.141 cm H2O/ml/sec | Lung Compliance (sensitized guinea pigs; [7]): 0.184 ± 0.061 ml/cm H2O | Lung Resistance (sensitized guinea pigs; [7]): 0.366 ± 0.046 cm H2O/ml/sec | Lung Compliance (sensitized guinea pigs; [8]): 0.196 ± 0.061 ml/cm H2O | Lung Resistance (sensitized guinea pigs; [8]): 0.340 ± 0.037 cm H2O/ml/sec | Lung Compliance (sensitized guinea pigs; [9]): 0.318 ± 0.042 ml/cm H2O | Lung Resistance (sensitized guinea pigs; [9]): 0.275 ± 0.036 cm H2O/ml/sec | Lung Compliance (sensitized guinea pigs; [10]): 0.435 ± 0.041 ml/cm H2O | Lung Resistance (sensitized guinea pigs; [10]): 0.260 ± 0.036 cm H2O/ml/sec
